Assay results as given in the SangsterLogP compilation.

| SMILES | logP |
| --- | --- |
| C=CCCl | 3 |
| C1=CC2C3C=CC(C3)C2C1 (stereo not drawn) | 2.9 |
| CC[C@H](C)N | 0.6 |
| CC(C)C(=O)O | 0.88 |
| Cc1ccc(S(=O)(=O)O)cc1 | 0.09 |
| COS(=O)(=O)OC | 0.03 |
| OCCS | -0.06 |
| C=CC(=O)O | 0.31 |
| CCCCC(CC)COC(=O)CCCCC(=O)OCC(CC)CCCC (stereo not drawn) | 8.1 |
| NCCNCCN | -1.3 |
| O=P(OCCCl)(OCCCl)OCCCl | 0.5 |
| CC(=O)OCCl | 0.75 |
| CCCCOCCOCCOC(C)=O | 1.77 |
| C=C(C)CCl | 1.98 |
| CCCCCOC(C)=O | 2 |
| COCCOCCOCCO | -0.7 |
| CC(C)CC=O | 1.3 |
| CCCCOC(=O)c1ccccc1C(=O)OCc1ccccc1 | 4.5 |
| C/C=C/C=O | 0.6 |
| OCCOCCOCCO | -1.2 |
| COCCOCCO | -1.1 |
| O=C1OC(=O)c2ccccc21 | 0.7 |
| C=CC(=O)OCC | 1.2 |
| OCC#CCO | -0.73 |
| OCCOCCO | -1.98 |
| CCCCCCCCCCO | 4.2 |
| CCOCCOC(C)=O | 0.24 |
| CC(C)C=O | 0.4 |
